Tests used:
[1] = tested on: rats with CYP-induced cystitis; assay: Rat CYP-induced cystitis model, frequent urination by cystometry; format: in vivo; conditions: 2 or 6 mg/mL solutions at 5 mL/kg oral twice a day Day 1-2, cystometry Day 3
Procedure: The effect of Compound A on frequent urination, calculated by single voided volume and intermicturition interval, was evaluated using a rat CYP-induced cystitis model. The evaluation was performed according to G M. Herrera et al., PLoS ONE 5 (8): e12298. Female CD (SD) rats (Charles River Laboratories Japan, Inc.) were used as the experimental animals. A monohydrochloride of Compound A was dissolved in 0.5% MC to prepare 2 mg/mL and 6 mg/mL solutions of Compound A.
30 mg/mL of CYP (Sigma) dissolved in saline was intraperitoneally administered in the vehicle group and Compound A group and saline was intraperitoneally administered in the sham group at 5 mL/kg (Day 1).
0.5% (w/v) MC was orally administered once a day for 2 days (Day 1-2) in the sham group and vehicle group at 5 mL/kg, and 2 mg/mL or 6 mg/mL solutions of Compound A was orally administered twice a day (Day 1-2) in the Compound A administration group at 5 mL/kg.
Intravesical pressure and voided volume were measured by cystometry on Day 3, and single voided volumes and intermicturition intervals were calculated. Mean values were calculated for each group from individual single voided volumes and intermicturition intervals, and the results are shown in FIG. 12A and FIG. 12B, respectively.

[2] = tested on: CYP-induced cystitis model mice; assay: Mouse cyclophosphamide (CYP)-induced cystitis model, lower abdominal licking time; format: in vivo; conditions: 3, 6 or 10 mg/mL solutions at 10 mL/kg oral once per day Days 7-9
Procedure: The inhibitory effect of Compound A on lower abdominal licking time was evaluated in a mouse CYP-induced cystitis model. The evaluation was performed according to M. Fujita et al., Eur J Pain. 20 (2016) 79-91. Male C57BL/6J mice (Charles River Laboratories Japan, Inc.) were used as the experimental animals.
Once per day for four days (Days 1-4) 20 mg/mL of CYP (Sigma) dissolved in saline solution was intraperitoneally administered to a vehicle group, a Compound A administration group, and an anti-NGF antibody group at a volume of 10 mL/kg, and saline solution was intraperitoneally administered to a sham group at a volume of 10 mL/kg. A monohydrochloride of Compound A was dissolved in 0.5% methyl cellulose (MC) to prepare 3 mg/mL, 6 mg/mL, and 10 mg/mL solutions of Compound A. […]
The behavior of the mice was recorded for 90 minutes using a video camera prior to the initial administration of CYP (Pre) and on Day 7, Day 8, and Day 10, and the lower abdominal licking time (seconds) was measured. […] The mean values of the licking times of the individual animals were calculated for each group, and the results are shown in FIG. 11.

[3] = tested on: subjects with active rheumatoid arthritis; assay: Pain evaluation in rheumatoid arthritis human clinical trial (pain NRS); format: in vivo
Procedure: Compound A was evaluated in a multicenter, randomized, double-blind, placebo-controlled, parallel-group study in subjects with active rheumatoid arthritis. Subjects were randomized to receive orally placebo or an amount of monohydrochloride Compound A sufficient to provide 50 mg, 100 mg, 150 mg, or 200 mg of free form, once daily for 12 weeks.
Pain was evaluated using a Numerical Rating Scale (NRS) by subjects. The pain NRS represents the severity of their arthritis pain during the past 3 days using an 11-point scale from 0 (no pain) to 10 (maximum pain). An evaluation was made of how much NRS decreased from baseline NRS after drug administration.
Data from EOT (end of treatment), at 2 weeks, and at 12 weeks was obtained. EOT is a measurement point generally used in clinical studies. In a 12-week study, it refers to all analysis at the 12-week time point. However, since some subjects will have discontinued the study midway, the data at the time of discontinuation is treated as the EOT for these subjects (for example, data for week 8 is used as EOT for subjects who discontinued in week 8). 2-week (subjects who completed 2 weeks in full) and 12-week (subjects who completed 12 weeks in full) data are also presented.
Change in pain NRS was evaluated in two subgroups of patients, those with higher baseline pain levels (median baseline pain NRS≥8.0) and those with lower baseline pain levels (median baseline pain NRS<8.0). […] Although the magnitude of decrease in pain NRS was different between lower and higher baseline pain NRS subgroups, both subgroups ultimately achieved a pain NRS score of approximately 4.

[4] = tested on: NGF-induced thermal hyperalgesia; assay: NGF-induced thermal hyperalgesia in rats (plantar test, paw withdrawal latency); format: in vivo, rat
Procedure: In order to induce a pain-related behavior (withdrawal behavior), NGF was injected into the plantar area of the left hind paw of rats and the thermal latencies/mechanical thresholds were measured. The effects of Compound A on these withdrawal behaviors were investigated. At 2 days before the injection of NGF, the thermal latencies or mechanical thresholds were measured for acclimation to the experimental environment. On the day before injection of NGF, body weights and values of the thermal latencies or mechanical thresholds were obtained. 50 μL of NGF solution was injected intraplantar to left hind paw of rats. 0.5 μg/site of NGF was selected in the evaluation of thermal stimuli and 1 μg/site was selected in that of mechanical stimuli. A monohydrochloride of Compound A (1, 3, or 10 mg/kg) was administered orally at the same time as the NGF injection. The latencies to thermal stimuli were measured at 3 and 6 hours after injection of NGF solution, and the thresholds to mechanical stimuli were measured at 1, 3 and 6 hours after injection of NGF solution. The evaluation was performed as a blind test of each group. The thermal latency was measured using a plantar test apparatus. An infrared heat stimuli was delivered to the plantar area of the hind paw and the time to withdraw the paw from the heat source was recorded automatically as the thermal latency. The measurement was performed 5 times for both hind paws of each animal, the averages of the last 3 values in each hind paw were accounted as the thermal latencies of each animal. The measurement for acclimation was performed only 3 times.

[5] = rheumatoid arthritis subjects, 50-200 mg oral once daily

For `C[C@@H](C(=O)N(C)c1ccc2cc(-c3n[nH]c4c3CCC(C)(C)C4)[nH]c2c1)N1CCOCC1` [Compound A, N-[2-(6,6-dimethyl-4,5,6,7-tetrahydro-1H-indazol-3-yl)-1H-indol-6-yl]-N-methyl-(2S)-2-(morpholin-4-yl)propanamide], the “frequent urination (single voided volume, intermicturition interval)” value [1] was “suppressed frequent urination”, the “lower abdominal licking time” value [2] was “reduced lower abdominal licking time” and the “pain NRS score ultimately achieved” value ([3]; both lower (<8.0) and higher (≥8.0) baseline pain NRS subgroups, 50-200 mg oral once daily for 12 weeks) was “approximately 4”. For the same compound, the “duration of anti-pain effects (long-lasting)” value [3, 5] was 12 weeks, the “time to anti-pain effects (rapid)” value [3, 5] was at most 2 weeks and the “pain in subjects having severe pain” value ([3]; subjects having pain greater than or equal to 8 on the NRS scale) was “reduce pain”. For the same compound, the “decrease in pain NRS by baseline pain subgroup” value ([3]; subjects with higher baseline pain levels (NRS≥8.0) versus lower (NRS<8.0)) was “Larger decreases in pain NRS were observed in subjects that began treatment with higher baseline pain levels”, the “dose from which significant effects were observed (thermal latency)” value ([4]; at 6 hours after NGF injection, oral) was at least 3 mg/kg and the “effect on the decrease in the thermal latencies induced by NGF” value ([4]; compared with the vehicle, 1, 3, 10 mg/kg oral, dose related) was “prevented the decrease in the thermal latencies induced by NGF”.
